We go through 4 compounds from patent publication US8716558B2, “Method of altering glycosylation of proteins in response to nojirimycin glucuronide in a plant cell expressing glucuronidase” (Marker Gene Technologies, Inc., priority 1999, dated 2014).

The test system of assay [1] is LFY::luc transformed Arabidopsis thaliana ecotype Columbia. The assay is described as follows: Tissue selective ablation of meristem floral initiator cells. Format: in vivo. The following applies: 5 mM spray in 0.01% triton X-100, 2 times per day, 7-20 days. The text has this: To test for induction of sterility and prevention of cross-pollination of recombinant plants, Arabiposis thaliana ecotype Columbia are transformed with a plasmid construct containing an LEAFY promoter (LFY) driven firefly luciferase (luc) gene by standard leaf disk techniques (Horsch, et al., 1988). The 2.3 kb BamHI fragment spanning the LFY promoter (Blazquez, et al., 1997) is inserted in front of the luc gene in plasmid pGL3 (available from Promega Corp., Madison, Wis.) using the BglII site. Transgenic plants are generated using the vacuum-filtration method of Berthold, et al. (Berthold, et al., 1993). Regenerated kanamycin-resistant T1 plants carrying LFY::luc are grown up in a greenhouse to allow seed to set. T2 seed of strongly expressing T1 lines are grown in sterile culture on MS medium containing kanamycin at 20° C. for 6 to 10 days in 16 hours light: 8 hours dark cycles and afterward in 12 hour light: 12 hour dark cycles. Plants are treated by spray application to the upper leaves and apical shoot sections, with 5 mM D-luciferin-bromoxynil in 0.01% aqueous triton X-100, 2 times per day, beginning on day 4, for a period of 7-20 days.

The next assay deals with CRE BAG 2 cells. The assay is described as follows: Selective ablation, ONPG turnover by remaining cells. The following applies: 15 μg/ml, 14 hours, three treatments, ONPG turnover 4 hours. Format: cell-based. The procedure: (§1) NIH/3T3, CRE BAG 2, or a 50/50 mixture of both cell lines (in co-culture) (Total cell density=6×10^4 cells each) were plated in […]. 12 tissue culture treated glass cover slips were added to each plate, and the cells were allowed to grow in an humidified CO2-incubator (37° C.) for 24 hours. Half the cover slips from each plate were then transferred to separate plates. Cells were treated with 15 μg/ml cycloheximide ? -D-galactopyranoside described in Example 1 (M0147) in media for 14 hours then given fresh media (DME with 10% FCS) for 10 hours. This treatment was repeated twice more, the cover slips were removed from both the M0147 treated and untreated 60 mm plates and placed in 12 well plates. To give an indication of the number of β-galactosidase expressing CREBAG2 cells remaining on the cover slips, the cover slips were incubated with the β-galactosidase substrate ONPG, whose turnover can be measured by the change in absorbance at 420 nm. The cells were rinsed with PBS, then 1 ml of 3.5 mM ONPG in HBSS was added to each well. After 4 hours incubation at 37° C., the solution was removed from each well and the absorbance was measured at 420 nm.

For assay [2], the system named is 50/50 co-culture of NIH/3T3 and CRE BAG 2 cells. Described as above. It is filed as cell-based. The following applies: 15 μg/ml. The procedure: as §1
Assay [3] has as its system NIH/3T3 cells. Described as above. It is filed as cell-based. The following applies: 15 μg/ml, 14 hours, three treatments, ONPG turnover 4 hours. The procedure:
as §1

In assay [4] the test system is CRE BAG 2 cells (β-galactosidase expressing). The assay is described as follows: Doubling time in DME:F12 with a defined sugar, MTT assay. The note with it: CRE BAG 2, named sugar as only sugar. Format: cell-based, Mouse. The procedure:
(§2) Mouse fibroblast cell line NIH/3T3 and its β-galactosidase expressing derivative CREBAG 2 available from ATCC, Manassas, Va., were grown in media containing either only glucose or only lactose to show the ability to select for β-galactosidase expressing cells by providing only lactose as a carbon source, which must be cleaved into glucose and galactose by β-galactosidase before it can be utilized by the cell.
(§3) 1:1 Dulbecco's Modified Eagles medium (DME): Ham F12 medium was prepared according to standard formula (Freshney) and with the omission of D-glucose, which was replaced by an equimolar quantity of D-lactose. Cell lines were plated in 2, 12 well plates for each cell type, at a density of 5×10^3 cells per well, in DME containing 10% Calf Serum (CS), and incubated for 4 hours at 37° C. to allow settling and attachment to the plate. Media was then removed and cells were washed once with phosphate buffered saline solution (PBS). […]
(§4) For the MTT assay, cells are incubated with the MTT reagent, which is turned over by live cells to a purple MTT formazan product. […] Absorbence of each sample is measured against a DMSO blank at 570 nm.
On the technique in general: Formazan colour is commonly taken as a measure of viable cells.

For assay [5], the system named is NIH/3T3 cells. The assay is described as above. It is filed as cell-based, Mouse. The following applies: NIH/3T3, named sugar as only sugar. The procedure:
as §2, §3, §4

For assay [6], the system named is X. campestris CL355 (ampicillin resistant, plasmid pGC9114). The assay is described as follows: Differential growth of amp-containing bacteria under PPT block. It is filed as cell-based, Xanthomonas campestris. The following applies: M9+0.2% glucose+PPT (20 μg/mL)+M0182 (63 μg/mL).
For the next assay, the system named is X. campestris XN1. The assay is described as follows: Differential growth of non-transformed bacteria under PPT block. The following applies: M9+0.2% glucose+PPT (20 μg/mL)+M0182 (63 μg/mL). Format: cell-based, Xanthomonas campestris.

Consider `N#Cc1cc(Br)c(OCC2SC(c3nc4ccc(O)cc4s3)=N[C@H]2C(=O)O)c(Br)c1` (stereo partly drawn) [D-luciferin-bromoxynil, D-2-(6′-Hydroxybenzothiazol-2′-yl)-D2-5-(2,6-dibromo-4-cyanophenoxy)methylthiazoline-4-carboxylic acid], for which the “floral initiation in apical shoot meristem” value in assay [1] is reported as “no transition to floral initiation”.

As to `CC1CC(C)C(=O)[C@H]([C@H](CC2CC(=O)NC(=O)C2)OC2OC(CO)C(O)C(O)C2O)C1` (stereo partly drawn) [Example M0147, 3-[2-(3,5-dimethyl-2-oxocyclohexyl)-2-O-(β-D-galactopyranosyl)ethyl]glutarimide], the “Growth (abs @ 420 nm)” value in the assay on CRE BAG 2 cells is “.450”; in assay [2] (Coculture, 14 hours, three treatments, ONPG turnover 4 hours), “.133”; in the assay with NIH/3T3 cells [3], “.100”. For the same compound, the “β-galactosidase activity (number of CREBAG2 cells) in co-culture” value in assay [2] (to nearly that of NIH/3T3 cells alone) is listed as “decrease of β-galactosidase activity”.

`OC[C@H]1O[C@@H](O[C@H]2[C@H](O)[C@@H](O)C(O)O[C@@H]2CO)[C@H](O)[C@@H](O)[C@H]1O` (stereo partly drawn) [lactose, D-lactose]: the “Doubling Times (Days) of Cells Grown in DME:F12 with 10% dCS” value was 1.13 days in assay [4] and 0.87 days in the assay on NIH/3T3 cells [5].

Take “Phenylacetyl-cephalosporanic acid-glutamate [Example M0182]”: the “final growth, Abs. (600 nm)” value in assay [6] amounted to 0.471; in the assay on X. campestris XN1, 0.101.
